# Test results taken from paper PMC4445471, “Piezo1 ion channel pore properties are dictated by C-terminal region” (Nature Communications, 2015).
# Legend:
# Assay in all cases: whole-cell patch clamp, mechanically activated current block
# Assay type in all cases: cell-based
# mPiezo1 [1] = target: T1, mPiezo1 (Mus musculus, UniProt E2JF22); details: -80 mV; extracellular RR; pH 7.3; room temperature; voltage-dependent pore block
# T1 construct: gene Piezo1; full length, 2547 residues, IRES-EGFP pcDNA3.1(-) vector, transfected HEK293T
# mPiezo1 [2] = target: T2, mPiezo1 (Mus musculus, UniProt E2JF22, E2133Q); details: -80 mV; extracellular RR; pH 7.3; room temperature
# T2 construct: gene Piezo1; full length, 2547 residues, IRES-EGFP pcDNA3.1(-) vector, transfected HEK293T
# mPiezo2 [3] = target: T3, mPiezo2 (Mus musculus, UniProt Q8CD54, E2416K); details: -80 mV; extracellular RR; pH 7.3; room temperature
# T3 construct: gene Piezo2; full length, pCMV-Sport6 vector (printed for the E2416K mutant), transfected HEK293T
# mPiezo2 [4] = target: T4, mPiezo2 (Mus musculus, UniProt Q8CD54); details: -80 mV; extracellular RR; pH 7.3; room temperature
# T4 construct: gene Piezo2; full length, pCMV-Sport6 vector (printed for the E2416K mutant), transfected HEK293T
# mPiezo1 [5] = target: T5, mPiezo1 (Mus musculus, UniProt E2JF22, E2133D); details: -80 mV; extracellular RR; pH 7.3; room temperature
# T5 construct: gene Piezo1; full length, 2547 residues, IRES-EGFP pcDNA3.1(-) vector, transfected HEK293T
# mPiezo1 [6] = target: T6, mPiezo1 (Mus musculus, UniProt E2JF22, E2133K); details: -80 mV; extracellular RR; pH 7.3; room temperature
# T6 construct: gene Piezo1; full length, 2547 residues, IRES-EGFP pcDNA3.1(-) vector, transfected HEK293T
# T6 sequence (E2JF22 whole entry E2133K): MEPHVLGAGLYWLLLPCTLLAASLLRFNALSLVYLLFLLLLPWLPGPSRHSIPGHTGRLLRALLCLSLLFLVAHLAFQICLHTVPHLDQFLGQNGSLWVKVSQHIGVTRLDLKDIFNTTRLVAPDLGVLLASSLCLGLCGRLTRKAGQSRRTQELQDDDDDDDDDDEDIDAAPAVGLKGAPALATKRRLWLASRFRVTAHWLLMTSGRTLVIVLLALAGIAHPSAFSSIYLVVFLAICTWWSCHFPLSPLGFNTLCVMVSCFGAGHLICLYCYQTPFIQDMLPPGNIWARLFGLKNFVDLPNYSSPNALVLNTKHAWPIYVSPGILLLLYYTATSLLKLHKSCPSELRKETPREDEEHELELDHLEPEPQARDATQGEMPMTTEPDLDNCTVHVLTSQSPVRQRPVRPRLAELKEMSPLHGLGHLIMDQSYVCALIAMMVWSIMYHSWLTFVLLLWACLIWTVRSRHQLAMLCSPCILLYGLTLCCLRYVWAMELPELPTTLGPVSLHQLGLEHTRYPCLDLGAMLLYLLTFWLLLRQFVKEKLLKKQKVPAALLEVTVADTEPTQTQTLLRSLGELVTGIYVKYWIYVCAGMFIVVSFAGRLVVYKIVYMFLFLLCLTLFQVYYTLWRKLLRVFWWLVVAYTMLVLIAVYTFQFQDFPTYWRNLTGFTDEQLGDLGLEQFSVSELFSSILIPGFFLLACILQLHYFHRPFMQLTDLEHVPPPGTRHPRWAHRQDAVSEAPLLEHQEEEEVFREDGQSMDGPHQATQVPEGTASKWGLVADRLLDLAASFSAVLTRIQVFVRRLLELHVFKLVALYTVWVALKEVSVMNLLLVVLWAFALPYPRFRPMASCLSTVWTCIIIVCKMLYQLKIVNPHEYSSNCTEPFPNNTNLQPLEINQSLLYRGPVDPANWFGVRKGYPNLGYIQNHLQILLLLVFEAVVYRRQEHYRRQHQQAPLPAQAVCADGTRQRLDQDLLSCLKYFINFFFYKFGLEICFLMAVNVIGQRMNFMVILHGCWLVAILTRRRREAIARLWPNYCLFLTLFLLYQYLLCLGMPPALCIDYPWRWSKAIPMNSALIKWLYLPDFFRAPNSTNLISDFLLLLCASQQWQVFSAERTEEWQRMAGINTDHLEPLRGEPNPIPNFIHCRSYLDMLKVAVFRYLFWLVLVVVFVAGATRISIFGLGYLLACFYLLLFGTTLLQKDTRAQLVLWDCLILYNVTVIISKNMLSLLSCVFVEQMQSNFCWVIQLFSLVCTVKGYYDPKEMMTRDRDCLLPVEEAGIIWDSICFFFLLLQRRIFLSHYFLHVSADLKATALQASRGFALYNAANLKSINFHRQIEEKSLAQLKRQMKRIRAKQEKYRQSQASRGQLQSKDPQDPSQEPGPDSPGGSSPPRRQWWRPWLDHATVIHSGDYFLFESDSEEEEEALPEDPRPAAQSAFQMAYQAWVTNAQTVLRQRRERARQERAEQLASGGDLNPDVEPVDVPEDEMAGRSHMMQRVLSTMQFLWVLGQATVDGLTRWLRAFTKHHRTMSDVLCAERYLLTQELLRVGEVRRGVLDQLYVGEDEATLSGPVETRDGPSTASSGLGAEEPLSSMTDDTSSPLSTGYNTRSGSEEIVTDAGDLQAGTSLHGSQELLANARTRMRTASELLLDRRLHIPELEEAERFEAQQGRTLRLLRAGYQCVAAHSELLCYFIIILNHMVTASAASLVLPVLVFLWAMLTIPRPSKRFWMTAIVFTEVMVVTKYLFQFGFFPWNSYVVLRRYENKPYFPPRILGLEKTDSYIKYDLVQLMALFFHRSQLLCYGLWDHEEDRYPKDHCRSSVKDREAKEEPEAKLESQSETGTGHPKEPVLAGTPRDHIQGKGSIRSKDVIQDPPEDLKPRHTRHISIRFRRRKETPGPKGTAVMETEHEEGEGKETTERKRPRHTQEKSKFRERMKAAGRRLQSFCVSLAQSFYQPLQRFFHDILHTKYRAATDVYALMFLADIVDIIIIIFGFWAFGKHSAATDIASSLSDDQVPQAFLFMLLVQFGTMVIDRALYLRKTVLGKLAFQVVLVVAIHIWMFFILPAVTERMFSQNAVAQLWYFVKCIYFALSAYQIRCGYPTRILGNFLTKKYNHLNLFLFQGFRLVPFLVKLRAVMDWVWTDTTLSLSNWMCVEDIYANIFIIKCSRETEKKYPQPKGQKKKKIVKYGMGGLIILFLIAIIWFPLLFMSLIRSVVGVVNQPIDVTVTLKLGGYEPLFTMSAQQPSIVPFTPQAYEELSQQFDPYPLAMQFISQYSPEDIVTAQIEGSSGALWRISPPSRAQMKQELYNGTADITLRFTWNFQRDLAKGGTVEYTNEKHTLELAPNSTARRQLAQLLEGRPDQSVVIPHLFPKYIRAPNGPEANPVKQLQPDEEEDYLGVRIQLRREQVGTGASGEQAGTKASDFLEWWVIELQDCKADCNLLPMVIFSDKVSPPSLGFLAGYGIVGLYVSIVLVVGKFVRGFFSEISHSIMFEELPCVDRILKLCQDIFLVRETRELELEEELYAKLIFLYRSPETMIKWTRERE
# T1 sequence (E2JF22 whole entry): as the sequence (E2JF22 whole entry E2133K) above, with K2133E counted along it
# T2 sequence (E2JF22 whole entry E2133Q): as the sequence (E2JF22 whole entry E2133K) above, with K2133Q counted along it
# T5 sequence (E2JF22 whole entry E2133D): as the sequence (E2JF22 whole entry E2133K) above, with K2133D counted along it
smiles,measurement,setting,value
N.N.N.N.N.N.N.N.N.N.N.N.N.N.[Cl-].[Cl-].[Cl-].[Cl-].[Cl-].[Cl-].[O-2].[O-2].[Ru+3].[Ru+3].[Ru+4] [ruthenium red],IC50,mPiezo1 [1],4.71 ± 0.83 µM
same,IC50,mPiezo1 [2],5.62 ± 1.27 µM
same,% block at 30 μM,mPiezo2 [3],49.6±4.6%
same,% block at 30 μM,mPiezo2 [4],70.8±1.4%
same,IC50,mPiezo1 [5],1.26 ± 0.28 µM
same,% block at 30 μM,mPiezo1 [6],8.1±7.1%
